Test results from patent publication US20250084095A1, “Aminopyrimidine Derivatives as Cyclin-Dependent Kinase Inhibitors” (Accutar Biotechnology Inc., priority 2023, published 2025).
pIC50: −log10 of the molar value. Like-named read-outs stand apart in the source and are kept apart here.

How the values were obtained:
[1] = system: 22RV1 cells; test: Cell growth inhibition of 22RV1 cells (CellTiter-Glo); format: cell-based; conditions: for GI50: 5 days, CellTiter-Glo
Summary of the method: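 22RV1 cells were plated in RPMI1640 with FBS (20% in one version, 10% in the other) and dosed next day at various concentrations from DMSO stocks. After 5 days at 37 °C, viability was measured by CellTiter-Glo luminescence.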

[2] = system: Phospho-Rb (Ser807/811) in MCF7 cells; test: Phospho-Rb expression inhibition in MCF7 cells quantified by in cell Western; format: cell-based, human; conditions: for pIC50: in cell Western
Summary of the method: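 MCF7 cells were seeded at 20,000/well, grown overnight, then treated 24 h at 37 °C with compound dilutions (0.1% DMSO from 1000× stocks). Fixed cells were co-stained for phospho-Rb Ser807/811 and total Rb. Near-infrared dual-channel in-cell Western imaging was the read-out.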

[3] = Homo sapiens, 22Rv1, 120 h, read-out: 22RV1 Cell Growh GI50
[4] = Homo sapiens, MCF7, 24 h, 24 hours, read-out: MCF7 pRb IC50

GI50 [1, 3]	pIC50 [2, 4]	SMILES	also measured
≤ 120 nM	≥ 7.40	CC(C)n1c([C@@H]2CCOC2)nc2c(F)cc(-c3nc(N[C@@H]4C[C@H]5CO[C@H](O5)[C@H]4O)ncc3Cl)cc21 [Compound 268, (1S,3R,4S,5R)-3-((5-chloro-4-(4-fluoro-1-isopropyl-2-((S)-tetrahydrofuran-3-yl)-1H-benzo[d]imidazol-6-yl)pyrimidin-2-yl)amino)-6,8-dioxabicyclo[3.2.1]octan-4-ol]	
≤ 120 nM	≥ 7.40	Cc1c(-c2nc(N[C@@H]3C[C@H]4CO[C@H](O4)[C@H]3O)ncc2C(F)F)sc2c(C(C)C)cn(C)c(=O)c12 [Compound 227, 2-(5-(difluoromethyl)-2-(((1S,3R,4S,5R)-4-hydroxy-6,8-dioxabicyclo[3.2.1]octan-3-yl)amino)pyrimidin-4-yl)-7-isopropyl-3,5-dimethylthieno[3,2-c]pyridin-4(5H)-one]	
120 to 450 nM	6.82 to 7.40	CC(C)n1c([C@H]2CCOC2)nc2c(F)cc(-c3nc(N[C@@H]4C[C@H]5CO[C@H](O5)[C@H]4O)ncc3F)cc21 [Compound 269, (1S,3R,4S,5R)-3-((5-fluoro-4-(4-fluoro-1-isopropyl-2-((R)-tetrahydrofuran-3-yl)-1H-benzo[d]imidazol-6-yl)pyrimidin-2-yl)amino)-6,8-dioxabicyclo[3.2.1]octan-4-ol]	
450 to 3000 nM	6.00 to 6.82	CC(C)n1c(N2C(=O)OC[C@@H]2C)nc2c(F)cc(-c3nc(N[C@@H]4C[C@H]5CO[C@H](O5)[C@H]4O)ncc3Cl)cc21 [Compound 298, (S)-3-(6-(5-chloro-2-(((1S,3R,4S,5R)-4-hydroxy-6,8-dioxabicyclo[3.2.1]octan-3-yl)amino)pyrimidin-4-yl)-4-fluoro-1-isopropyl-1H-benzo[d]imidazol-2-yl)-4-methyloxazolidin-2-one]	
120 to 450 nM	6.82 to 7.40	CC(C)n1c([C@@H]2CCOC2)nc2c(F)cc(-c3nc(N[C@@H]4C[C@H]5CO[C@H](O5)[C@H]4O)ncc3F)cc21 [Compound 270, (1S,3R,4S,5R)-3-((5-fluoro-4-(4-fluoro-1-isopropyl-2-((S)-tetrahydrofuran-3-yl)-1H-benzo[d]imidazol-6-yl)pyrimidin-2-yl)amino)-6,8-dioxabicyclo[3.2.1]octan-4-ol]	
≤ 120 nM	≥ 7.40	Cc1c(C(C)(C)O)cnc2c(F)cc(-c3nc(N[C@@H]4C[C@H]5CO[C@H](O5)[C@H]4O)ncc3Cl)cc12 [Compound 257, (1S,3R,4S,5R)-3-((5-chloro-4-(8-fluoro-3-(2-hydroxypropan-2-yl)-4-methylquinolin-6-yl)pyrimidin-2-yl)amino)-6,8-dioxabicyclo[3.2.1]octan-4-ol]	
≤ 120 nM	≥ 7.40	Cc1c(-c2nc(N[C@@H]3C[C@H]4CO[C@H](O4)[C@H]3O)ncc2Cl)sc2c(C(C)C)cnnc12 [Compound 259, (1S,3R,4S,5R)-3-((5-chloro-4-(4-isopropyl-7-methylthieno[3,2-c]pyridazin-6-yl)pyrimidin-2-yl)amino)-6,8-dioxabicyclo[3.2.1]octan-4-ol]	
120 to 450 nM	≥ 7.40	Cc1c(-c2nc(N[C@@H]3C[C@H]4CO[C@H](O4)[C@H]3O)ncc2F)sc2c(Cl)c(C(C)(C)O)cnc12 [Compound 276, (1S,3R,4S,5R)-3-((4-(7-chloro-6-(2-hydroxypropan-2-yl)-3-methylthieno[3,2-b]pyridin-2-yl)-5-fluoropyrimidin-2-yl)amino)-6,8-dioxabicyclo[3.2.1]octan-4-ol]	
120 to 450 nM	≥ 7.40	Cc1c(-c2nc(N[C@@H]3C[C@H]4CO[C@H](O4)[C@H]3O)ncc2Cl)sc2c(C)c(C(C)(C)O)cnc12 [Compound 277, (1S,3R,4S,5R)-3-((5-chloro-4-(6-(2-hydroxypropan-2-yl)-3,7-dimethylthieno[3,2-b]pyridin-2-yl)pyrimidin-2-yl)amino)-6,8-dioxabicyclo[3.2.1]octan-4-ol]	
≤ 120 nM	≥ 7.40	CC(C)(O)c1cnc2c(F)cc(-c3nc(N[C@@H]4C[C@H]5CO[C@H](O5)[C@H]4O)ncc3Cl)cc2c1Cl [Compound 252, (1S,3R,4S,5R)-3-((5-chloro-4-(4-chloro-8-fluoro-3-(2-hydroxypropan-2-yl)quinolin-6-yl)pyrimidin-2-yl)amino)-6,8-dioxabicyclo[3.2.1]octan-4-ol]	
≤ 120 nM	≥ 7.40	Cc1c(-c2nc(N[C@@H]3C[C@H]4CO[C@H](O4)[C@H]3O)ncc2Cl)sc2c(C(C)C)cn(C)c(=O)c12 [Compound 223, 2-(5-chloro-2-(((1S,3R,4S,5R)-4-hydroxy-6,8-dioxabicyclo[3.2.1]octan-3-yl)amino)pyrimidin-4-yl)-7-isopropyl-3,5-dimethylthieno[3,2-c]pyridin-4(5H)-one]	

The next lines start with the compound.

SMILES	GI50 [1, 3]	pIC50 [2, 4]	also measured
CNCc1c(C)c(=O)c2ccc(-c3nc(N[C@@H]4C[C@H]5CO[C@H](O5)[C@H]4O)ncc3F)cc2n1C(C)C [Compound 194, 7-(5-fluoro-2-(((1S,3R,4S,5R)-4-hydroxy-6,8-dioxabicyclo[3.2.1]octan-3-yl)amino)pyrimidin-4-yl)-1-isopropyl-3-methyl-2-((methylamino)methyl)quinolin-4(1H)-one]	120 to 450 nM	6.82 to 7.40	
CC(C)n1c(C(C)(C)O)nc2c(F)cc(-c3nc(N[C@@H]4CCOC[C@H]4O)ncc3Cl)cc21 [Reference Compound, PF-07220060, reference compound]			GI50 ([1]; read-out: 22RVI, GI50): 153 nM; pIC50 ([2]; 24 h incubation, read-out: MCF7, pRb (Ser807/811), IC50): 7.19
CC(C)n1c(CN2[C@@H](C)COC[C@@H]2C)c(F)c(=O)c2ccc(-c3nc(N[C@@H]4C[C@H]5CO[C@H](O5)[C@H]4O)ncc3Cl)cc21 [Compound 201, 7-(5-chloro-2-(((1S,3R,4S,5R)-4-hydroxy-6,8-dioxabicyclo[3.2.1]octan-3-yl)amino)pyrimidin-4-yl)-2-(((3S,5S)-3,5-dimethylmorpholino)methyl)-3-fluoro-1-isopropylquinolin-4(1H)-one]	120 to 450 nM	6.82 to 7.40	
CC(C)n1c(C(C)(C)O)nc2c(F)cc(-c3nc(N[C@@H]4C[C@H]5CO[C@H](O5)[C@H]4O)ncc3Cl)cc21 [Compound 1, (1S,3R,4S,5R)-3-((5-chloro-4-(4-fluoro-2-(2-hydroxypropan-2-yl)-1-isopropyl-1H-benzo[d]imidazol-6-yl)pyrimidin-2-yl)amino)-6,8-dioxabicyclo[3.2.1]octan-4-ol]	≤ 120 nM	6.82 to 7.40	GI50 ([1]; Homo sapiens, 22Rv1, 120 h, read-out: 22RVI, GI50): 144 nM; Potency in 22RV1 cell growth inhibition compared with the reference compound ([1]; versus PF-07220060): slightly higher potency; pIC50 ([2]; Homo sapiens, MCF7, 24 h, 24 h incubation, read-out: MCF7, pRb (Ser807/811), IC50): 7.39; Potency in p-Rb inhibition compared with the reference compound ([2]; versus PF-07220060): higher potency
CC(C)n1c(CN2[C@@H](C)COC[C@@H]2C)cc(=O)c2ccc(-c3nc(N[C@@H]4C[C@H]5CO[C@H](O5)[C@H]4O)ncc3Cl)cc21 [Compound 205, 7-(5-chloro-2-(((1S,3R,4S,5R)-4-hydroxy-6,8-dioxabicyclo[3.2.1]octan-3-yl)amino)pyrimidin-4-yl)-2-(((3S,5S)-3,5-dimethylmorpholino)methyl)-1-isopropylquinolin-4(1H)-one]	120 to 450 nM	6.82 to 7.40	
Cc1nc2c(F)cc(-c3nc(N[C@@H]4C[C@H]5CO[C@H](O5)[C@H]4O)ncc3Cl)cc2n1C(C)C [Compound 25, (1S,3R,4S,5R)-3-((5-chloro-4-(4-fluoro-1-isopropyl-2-methyl-1H-benzo[d]imidazol-6-yl)pyrimidin-2-yl)amino)-6,8-dioxabicyclo[3.2.1]octan-4-ol]	120 to 450 nM	6.82 to 7.40	
Cc1c(CN2[C@@H](C)COC[C@@H]2C)n(C(C)C)c2cc(-c3nc(N[C@@H]4C[C@H]5CO[C@H](O5)[C@H]4O)ncc3Cl)ccc2c1=O [Compound 206, 7-(5-chloro-2-(((1S,3R,4S,5R)-4-hydroxy-6,8-dioxabicyclo[3.2.1]octan-3-yl)amino)pyrimidin-4-yl)-2-(((3S,5S)-3,5-dimethylmorpholino)methyl)-1-isopropyl-3-methylquinolin-4(1H)-one]	≤ 120 nM	≥ 7.40	
CC(C)n1c([C@@H]2CC2(F)F)nc2c(F)cc(-c3nc(N[C@@H]4C[C@H]5CO[C@H](O5)[C@H]4O)ncc3Cl)cc21 [Compound 216, (1S,3R,4S,5R)-3-((5-chloro-4-(2-((S)-2,2-difluorocyclopropyl)-4-fluoro-1-isopropyl-1H-benzo[d]imidazol-6-yl)pyrimidin-2-yl)amino)-6,8-dioxabicyclo[3.2.1]octan-4-ol]	≤ 120 nM	≥ 7.40	
CC(C)n1c(CN2CC[C@@H](F)C2)c(F)c(=O)c2ccc(-c3nc(N[C@@H]4C[C@H]5CO[C@H](O5)[C@H]4O)ncc3F)cc21 [Compound 202, 3-fluoro-7-(5-fluoro-2-(((1S,3R,4S,5R)-4-hydroxy-6,8-dioxabicyclo[3.2.1]octan-3-yl)amino)pyrimidin-4-yl)-2-(((R)-3-fluoropyrrolidin-1-yl)methyl)-1-isopropylquinolin-4(1H)-one]	450 to 3000 nM	6.00 to 6.82	
Cc1c(C)n(C(C)C)c2cc(-c3nc(N[C@@H]4C[C@H]5CO[C@H](O5)[C@H]4O)ncc3Cl)ccc2c1=O [Compound 191, 7-(5-chloro-2-(((1S,3R,4S,5R)-4-hydroxy-6,8-dioxabicyclo[3.2.1]octan-3-yl)amino)pyrimidin-4-yl)-1-isopropyl-2,3-dimethylquinolin-4(1H)-one]	450 to 3000 nM	6.82 to 7.40	
